# Assay results taken from patent EP0449009A2, “Use of gallopamil for the preparation of medicaments for the treatment of acute renal failure” (KNOLL AG, priority 1990, dated 1991).
# Tested on: Patienten, die an akutem Nierenversagen erkrankt waren
# Test: Clinical study of gallopamil infusion in patients with acute renal failure
# Type: in vivo
# Description: Zum Nachweis der Wirksamkeit bei akutem Nierenversagen wurde Gallopamil 8 Patienten, die an akutem Nierenversagen erkrankt waren, über einen Zeitraum von 4 Stunden intrarenal in Dosierungen von 40 bis 160 µg/min kontinuierlich infundiert. Gleichzeitig wurde intravenös ein Diuretikum (Furosemid) in einer Konzentration von 40 µg/min über 24 Stunden verabreicht. Bei 2 weiteren Patienten wurde Gallopamil intravenös über Zeiträume von 3 und 24 Stunden in einer Menge von 40 µg/min infundiert.
# In dieser Studie konnte bei 80 % der Patienten der deletäre Verlauf des akuten Nierenversagens gestoppt werden (siehe nachstehende Tabelle).
# [1] = whole study: 8 patients 40 to 160 µg/min intrarenal over 4 h + Furosemid i.v., 2 patients 40 µg/min intravenous
smiles,measurement,setting,value
"COc1ccc(CCN(C)CCCC(C#N)(c2cc(OC)c(OC)c(OC)c2)C(C)C)cc1OC (stereo not drawn) [Gallopamil, 1-(3,4-Dimethoxyphenyl)-3-methylaza-7-cyan-7-(3,4,5-trimethoxyphenyl)-8-methylnonan]",Kreatinin-Ausscheidung nach einem Behandlungstag,"patient with G-6-PD (Glukose-6-phosphatdehydrogenasemangel), treatment begun 2 weeks after onset and after two dialyses, 83 µg/min intrarenal over 4 h + Furosemid 40 µg/min i.v. over 24 h, before treatment 0,8","1,2 ml/min"
same,Kreatininkonzentration im Blut nach sieben Behandlungstagen,"patient with G-6-PD (Glukose-6-phosphatdehydrogenasemangel), treatment begun 2 weeks after onset and after two dialyses, 83 µg/min intrarenal over 4 h + Furosemid 40 µg/min i.v. over 24 h, before treatment 14,1","14,6 mg/dl"
same,Kreatinin-Ausscheidung nach einem Behandlungstag,"patient with Malaria, treatment begun 2 weeks after onset and after two dialyses, 50 µg/min intrarenal over 4 h + Furosemid 40 µg/min i.v. over 24 h, before treatment 2,2","3,7 ml/min"
same,Kreatininkonzentration im Blut nach sieben Behandlungstagen,"patient with Malaria, treatment begun 2 weeks after onset and after two dialyses, 50 µg/min intrarenal over 4 h + Furosemid 40 µg/min i.v. over 24 h, before treatment 12,7","5,5 mg/dl"
same,Kreatinin-Ausscheidung nach einem Behandlungstag,"patient with Malaria, 40 µg/min intrarenal over 4 h + Furosemid 40 µg/min i.v. over 24 h, before treatment 5,3","14,3 ml/min"
same,Kreatininkonzentration im Blut nach sieben Behandlungstagen,"patient with Malaria, 40 µg/min intrarenal over 4 h + Furosemid 40 µg/min i.v. over 24 h, before treatment 10,4","3,1 mg/dl"
same,Kreatininkonzentration im Blut nach sieben Behandlungstagen,"patient with Rhabdomyolysis, 40 µg/min intravenous over 3 h, before treatment 5,2","5,9 mg/dl"
same,Kreatinin-Ausscheidung nach einem Behandlungstag,"patient with Rhabdomyolysis, 40 µg/min intravenous over 3 h, before treatment 8,9","3,6 ml/min"
same,Kreatinin-Ausscheidung nach einem Behandlungstag,"patient with Rhabdomyolysis, 80 µg/min intrarenal over 4 h + Furosemid 40 µg/min i.v. over 24 h, before treatment 4,0","5,1 ml/min"
same,Kreatininkonzentration im Blut nach sieben Behandlungstagen,"patient with Rhabdomyolysis, 80 µg/min intrarenal over 4 h + Furosemid 40 µg/min i.v. over 24 h, before treatment 10,1","9,3 mg/dl"
same,Kreatininkonzentration im Blut nach sieben Behandlungstagen,"patient with Schock, 40 µg/min intravenous over 24 h, before treatment 5,5","2,9 mg/dl"
same,Kreatinin-Ausscheidung nach einem Behandlungstag,"patient with Schock, 40 µg/min intravenous over 24 h, before treatment 10,4","17,9 ml/min"
same,Kreatinin-Ausscheidung nach einem Behandlungstag,"patient with Schock, 83 µg/min intrarenal over 4 h + Furosemid 40 µg/min i.v. over 24 h, before treatment 3,4","13,2 ml/min"
same,Kreatininkonzentration im Blut nach sieben Behandlungstagen,"patient with Schock, 83 µg/min intrarenal over 4 h + Furosemid 40 µg/min i.v. over 24 h, before treatment 4,7","1,1 mg/dl"
same,Kreatinin-Ausscheidung nach einem Behandlungstag,"patient with hypovolenischer Schock, 160 µg/min intrarenal over 4 h + Furosemid 40 µg/min i.v. over 24 h, before treatment 2,3","16,1 ml/min"
same,Kreatininkonzentration im Blut nach sieben Behandlungstagen,"patient with hypovolenischer Schock, 160 µg/min intrarenal over 4 h + Furosemid 40 µg/min i.v. over 24 h, before treatment 9,6","2,5 mg/dl"
same,Kreatininkonzentration im Blut nach sieben Behandlungstagen,"patient with septischer Schock, 83 µg/min intrarenal over 4 h + Furosemid 40 µg/min i.v. over 24 h, before treatment 10,6","1,3 mg/dl"
same,Kreatinin-Ausscheidung nach einem Behandlungstag,"patient with septischer Schock, 83 µg/min intrarenal over 4 h + Furosemid 40 µg/min i.v. over 24 h, before treatment 29,0","48,0 ml/min"
same,"Patienten, bei denen auf eine Dialyse verzichtet werden konnte",[1],90%
same,"Patienten, bei denen der deletäre Verlauf des akuten Nierenversagens gestoppt werden konnte",[1],80%
same,Überleben des akuten Nierenversagens,[1],alle Patienten überlebten
